Test results: patent publication US6699676B1, “Uses of ouabain and ouabain-like molecules in apoptosis related pathologies” (Corporation du Centre de Recherche du Centre, Hospitalier …, priority 1999, dated 2004)
Marks after values point to notes of the source that are not given here.

Experiments:
[1] = system: VSMC; experiment: ATP content in VSMC; conditions: 8 hours incubation with ouabain, data not shown
[2] = system: VSMC; experiment: DNA synthesis, serum-induced [3H]-thymidine incorporation in VSMC; assay type: cell-based, rat
Procedure: As with ouabain, VSMC apoptosis was blocked by inhibition of the Na^+,K^+ pump in K^+-depleted medium (Table 1). […] DNA synthesis in VSMC, measured as serum-induced [^3H]-thymidine incorporation, was also insensitive to 5 hours preincubation with ouabain and was decreased by ˜60% only after 48 hours of the Na^+, K^+ pump inhibition (data not presented).

[3] = system: VSMC; experiment: LDH release (necrosis marker) in VSMC; assay type: cell-based, rat
Procedure: VSMC growing in 6-well (LDH release) or 24-well (chromatin cleavage assay) plates were preincubated for 3 hours with or without 1 mM ouabain. In part of the experiments, the cells were subjected to 30 min incubation at 46° C. (heat-treated cells, line 3). They were then incubated in the absence or presence of 10% calf serum during additional 8 hr and chromatin cleavage and LDH release were measured as indicated in Experimental Procedures and with a spectrophotometric kit (Sigma), respectively. Means±S.E. from experiments performed in triplicate (LDH release) or quadruplicate (chromatin cleavage) are given. ★, ★★ p<0.05 and 0.001 compared to ouabain-untreated cells. #p<0.001 compared to serum-supplied, heat-untreated cells.

[4] = system: VSMC-MYC; experiment: Chromatin cleavage assay in VSMC-MYC; assay type: cell-based, rat; conditions: 1 mM ouabain, 1 hr preincubation, 6 hours
Procedure: Cells were incubated in K^+-containing medium consisting of 91 mM NaCl, 5 mM KCl, 0.9 mM NaH2PO4, 44 mM NaHCO3, 1.8 mM CaCl2, 0.8 mM MgCl2, 33 mM HEPES and 5 mM D-glucose (pH 7.4) (lines 1 and 2) or in K^+-depleted medium (equimolar substitution of KCl by NaCl, line 3) with or without 10% calf serum (CS) and 1 mM ouabain as indicated. In experiments with VSMC-MYC and VSMC-E1A, cells were preincubated for 1 hr with ouabain or with K^+-depleted medium in the presence of CS and then subjected to treatment with serum-free media. After 24 hours (VSMC) or 6 hours (VSMC-MYC and VSMC-E1A), the content of chromatin fragments was measured as described in Experimental Procedures. […]
Chromatin cleavage assay. […] After 15 min, the cell lysate was transferred to Ependorf tubes, sedimented (12,000 rpm, 10 mm), and 1 ml of supernatant was transferred for the measurement of radioactivity (A1t). The remaining radioactivity from pellets and wells was extracted with 0.5 ml of 1% SDS/4 mM EDTA mixture, combined and counted (A2). Chromatin cleavage was quantified as the content of chromatin fragments normalized by total content of [^3H]-labeled DNA in accordance with the equation [1.5×(A1t−A1o)/(A2+A1t−1.5A1o)]×100% where A1o is the value of A1t before induction of apoptosis. […]

[5] = system: Jurkat cells; experiment: Chromatin cleavage assay in Jurkat cells; assay type: cell-based, human; conditions: for Chromatin fragments (%): 1 mM, 2 hours + 7 hours; for content of chromatin fragments: 3 hours, 0.25 μM staurosporine or 350 mM mannitol (from 2.6±1.2)
Procedure: FIG. 4. Effect of ouabain on chromatin cleavage in Jurkat cells. (A) Kinetics of accumulation of chromatin fragments in control (curves 1, 3) and ouabain-treated (curves 2, 4) cells in the absence (curves 1, 2) or presence (curves 3, 4) of 100 ng/ml of anti-human Fas (mouse monoclonal IgM, Upstate Biotechnology, Lake Placid, N.Y.); (B) Content of chromatin fragments in Jurkat cells subjected to 3 hours of incubation with or without 1 mM ouabain, 0.25 μM staurosporine and 350 mM mannitol. In both experiments, ouabain was added 2 hours before triggering of apoptosis. Mean values±S.E. obtained in experiments performed in triplicate are given.
To estimate chromatin cleavage, cells were incubated for 2 hours in the presence of 10% calf serum in the control solution (DMEM, [Na^+]=137 mM; [K^+]=5 mM—line 1) or under equimolar substitution of NaCl with KCl ([Na^+]=14 mM; [K^+]=128 mM—line 2) with or without 1 mM ouabain and then for an additional 7 hours at the same media with or without 100 ng/ml Fas ligand (Fas-L). Intracellular Na^+ and K^+ content was measured as steady-state distribution of isotopes after 24 hours preincubation of cells in control Na^+-enriched solution containing 0.5 μCi/ml ^86Rb or 2 μCi/ml ^22Na, and an additional 6 hours incubation in Na^+—(line 1) or K^+—(line 2) enriched medium containing 10% calf serum, isotopes with the same specific activity with or without 1 mM ouabain. For more details see Experimental Procedures. Mean values±S.E. obtained in experiments performed in triplicate are given. ★, #p<0.01 and 0.001 compared to ouabain-untreated cells.
Cells. VSMC were obtained by explant methods from aortas of 10- to 13-week-old male rats as described previously (17), cultured in DMEM with 10% calf serum, 100 U/ml penicillin, 100 µg/ml streptomycin and used between 10 to 16 passages. Cells transfected with c-myc (VSMC-MYC) and E1A-adenovirus (VSMC-E1A) were obtained in accordance with a previously-described protocol (18,19) and were cultured in the same medium with the addition of 500 µg/ml genticin. Jurkat cells were obtained from the American Type Culture Collection and cultured in RPMI 1640 medium supplied with 10% calf serum, antibiotics, sodium pyruvate, glutamate and β-mercaptoethanol.
Chromatin cleavage assay. Chromatin cleavage in VSMC was estimated by a technique described previously in detail (10). Briefly, VSMC grown in 24-well dishes were labeled for 24 hours in serum-supplied DMEM with [^3H]-thymidine (1 μCi/ml), washed with 2×2 ml of DMEM and incubated in serum-supplied DMEM. In 48 hr, the cells were pretreated with ouabain or K^+-depleted medium as indicated in FIG. 2 and Table 3, washed twice with serum-containing medium and incubated with 0.5 ml of medium with or without ouabain and containing different inducers of apoptosis. To measure the content of chromatin fragments, the cells were transferred on ice and 1 ml of ice-cold lysed buffer (10 mM EDTA, 10 mM tris-HCl, 0.5% triton X100 (pH 8.0)) was added. After 15 min, the cell lysate was transferred to Ependorf tubes, sedimented (12,000 rpm, 10 mm), and 1 ml of supernatant was transferred for the measurement of radioactivity (A1t). The remaining radioactivity from pellets and wells was extracted with 0.5 ml of 1% SDS/4 mM EDTA mixture, combined and counted (A2). Chromatin cleavage was quantified as the content of chromatin fragments normalized by total content of [^3H]-labeled DNA in accordance with the equation [1.5×(A1t−A1o)/(A2+A1t−1.5A1o)]×100% where A1o is the value of A1t before induction of apoptosis. To measure chromatin fragmentation in [^3H]-thymidine-labeled Jurkat cells, they were resuspended at a density of 10^6 cells/ml in medium containing 10% calf serum and the additions indicated in FIG. 4 and Table 4. At the time intervals shown in FIG. 4, 100 μl of cell suspension was mixed with 100 μl of PBS contairung 0.5% triton X100, and the content of chromatin fragments was measured as described previously in detail (20).

Row | Compound | ATP content [1] | DNA synthesis, serum-induced [^3H]-thymidine incorporation ([2]; 5 hours preincubation with ouabain) | decrease of DNA synthesis, serum-induced [^3H]-thymidine incorporation ([2]; after 48 hours of Na+,K+ pump inhibition with ouabain) [%] | LDH release ([3]; VSMC, 8 hours incubation with ouabain) | heat stress-induced LDH-release ([3]; VSMC, heat stress 46° C., 30 min, ouabain) | LDH release (%) ([3]; serum-deprived VSMC, 3 hours preincubation 1 mM ouabain, additional 8 hr) | LDH release (%) ([3]; serum-supplied VSMC, 3 hours preincubation 1 mM ouabain, additional 8 hr) | LDH release (%) ([3]; serum-supplied, heat-treated (46° C., 30 min) VSMC, 1 mM ouabain, 8 hr) | Chromatin fragments (%) ([4]; 10% CS) | Chromatin fragments (%) ([4]; CS-free) | chromatin cleavage in the absence of triggers of apoptosis ([5]; Jurkat cells, 2 hours ouabain pretreatment, subsequent 3 hours) | increment of chromatin cleavage triggered by Fas ligand, staurosporine or mannitol ([5]; Jurkat cells, ouabain, 3 hours treatment with trigger) | Chromatin fragments (%) ([5]; ouabain-treated Jurkat cells, +Fas-L 100 ng/ml, medium [Na+]o=14, [K+]o=128 mM) | Chromatin fragments (%) ([5]; ouabain-treated Jurkat cells, +Fas-L 100 ng/ml, medium [Na+]o=137, [K+]o=5 mM) | Chromatin fragments (%) ([5]; ouabain-treated Jurkat cells, no Fas-L, medium [Na+]o=14, [K+]o=128 mM) | Chromatin fragments (%) ([5]; ouabain-treated Jurkat cells, no Fas-L, medium [Na+]o=14, [K+]o=128 mM, listed as ouabain) | Chromatin fragments (%) ([5]; ouabain-treated Jurkat cells, no Fas-L, medium [Na+]o=137, [K+]o=5 mM) | Chromatin fragments (%) ([5]; ouabain-treated Jurkat cells, no Fas-L, medium [Na+]o=137, [K+]o=5 mM, listed as ouabain) | increment of the content of chromatin fragments triggered by Fas ligand ([5]; ouabain-treated Jurkat cells, 7-hr incubation) [%] | content of chromatin fragments ([5]; Jurkat cells) [%]
1 | C[C@@H]1O[C@@H](O[C@H]2C[C@@H](O)[C@]3(CO)[C@H]4[C@H](O)C[C@]5(C)[C@@H](C6=CC(=O)OC6)CC[C@]5(O)[C@@H]4CC[C@]3(O)C2)[C@H](O)[C@H](O)[C@H]1O [Ouabain, 1β,3β,5,11α,14,19-hexahydroxycard 20 [22]-enolide 3-[6-deoxy-α-L-mannopyrano-sidel]] | did not observe any significant effect | insensitive | ~60 | did not observe any significant effect | did not observe modulation | 1.8 ± 0.4 | 1.2 ± 0.3 | 11.0 ± 2.8# % | 1.4 ± 0.3 | 3.1 ± 0.4 | did not significantly modify chromatin cleavage | did not observe any effect | 22.7 | 42.7 | 5.7 | 5.7±2.0 | 16.0 | 16.0±4.6 | 26.2±4.7 | –
2 | OC[C@@H](O)[C@@H](O)[C@H](O)[C@H](O)CO [mannitol] | – | – | – | – | – | – | – | – | – | – | – | – | – | – | – | – | – | – | – | 15.6±2.9
3 | CN[C@@H]1C[C@H]2O[C@@](C)([C@@H]1OC)n1c3ccccc3c3c4c(c5c6ccccc6n2c5c31)C(=O)NC4 [staurosporine] | – | – | – | – | – | – | – | – | – | – | – | – | – | – | – | – | – | – | – | 19.7±4.3
